Measurements reported in ChEMBL document CHEMBL1201862, “PubChem BioAssay data set” (2004).
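Grown in 96-well plates, cells were treated for 48 hours with each compound at five concentrations. Insufficient inhibition: endpoint recorded as highest concentration tested. Abbreviation: GI50, concentration required for 50% inhibition of growth.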 Activity calls are given as the source filed them. Cut-off read from the data, not from the text of the source: active = GI50 up to about 1.1 µM and inactive = higher.

Assays:
Assay in all cases: growth of human tumour cells (NCI), 48 h
[1] = tested on: UACC-257
[2] = tested on: DU-145
[3] = tested on: UACC-62
[4] = tested on: HCT-15
[5] = tested on: NCI-H522
[6] = tested on: OVCAR-4
[7] = tested on: SK-MEL-2
[8] = tested on: HT-29
[9] = tested on: NCI/ADR-RES
[10] = tested on: KM12
[11] = tested on: IGROV-1
[12] = tested on: LOX IMVI
[13] = tested on: MOLT-4
[14] = tested on: BT-549
[15] = tested on: SNB-75
[16] = tested on: NCI-H23
[17] = tested on: UO-31
[18] = tested on: PC-3
[19] = tested on: Hs-578T
[20] = tested on: HCT-116
[21] = tested on: RXF 393
[22] = tested on: EKVX
[23] = tested on: SNB-19
[24] = tested on: SR
[25] = tested on: K562
[26] = tested on: HL-60
[27] = tested on: M14
[28] = tested on: MCF7
[29] = tested on: OVCAR-3
[30] = tested on: OVCAR-8
[31] = tested on: U-251
[32] = tested on: HOP-62
[33] = tested on: ACHN
[34] = tested on: 786-0
[35] = tested on: SK-OV-3
[36] = tested on: A498
[37] = tested on: SW-620
[38] = tested on: SF-539
[39] = tested on: COLO 205
[40] = tested on: OVCAR-5
[41] = tested on: SF-295
[42] = tested on: SK-MEL-28
[43] = tested on: T47D
[44] = tested on: Malme-3M
[45] = tested on: A549
[46] = tested on: MDA-MB-231
[47] = tested on: CAKI-1
[48] = tested on: SK-MEL-5
[49] = tested on: SF-268
[50] = tested on: SN12C
[51] = tested on: TK-10
[52] = tested on: MDA-N
[53] = tested on: MDA-MB-435
[54] = tested on: NCI-H460
[55] = tested on: NCI-H226
[56] = tested on: RPMI-8226

How did the GI50 [1] turn out when `COc1nc(C#CCCCC#N)nc(OC)n1` was run?
Its GI50 is 18.9 µM (inactive).

And the GI50 [2]?
The GI50 was 8.93 µM (inactive).

And the GI50 [3]?
Its GI50 is 9.62 µM (inactive).

What about the GI50 [4] of the same molecule?
The GI50 was 3.29 µM.

What about the GI50 [5] of the same molecule?
The GI50 was 14.2 µM (inactive).

What about the GI50 [6] of the same molecule?
The GI50 was 3.82 µM (inactive).

What about the GI50 [7] of the same molecule?
The GI50 was 16 µM (inactive).

And the GI50 [8]?
Its GI50 is 24.3 µM (inactive).

And the GI50 [9]?
Its GI50 is 28.5 µM (inactive).

And the GI50 [10]?
The GI50 was 16.9 µM (inactive).

What about the GI50 [11] of the same molecule?
The GI50 was 17.3 µM (inactive).

What about the GI50 [12] of the same molecule?
Its GI50 is 2.08 µM (inactive).

What about the GI50 [13] of the same molecule?
The GI50 was 14.4 µM (inactive).

And the GI50 [14]?
The GI50 was 15.9 µM (inactive).

What about the GI50 [15] of the same molecule?
Its GI50 is 19.5 µM (inactive).

What about the GI50 [16] of the same molecule?
Its GI50 is 13.8 µM (inactive).

And the GI50 [17]?
The GI50 was 11.1 µM (inactive).

And the GI50 [18]?
The GI50 was 13.2 µM (inactive).

And the GI50 [19]?
Its GI50 is 40.8 µM (inactive).

What about the GI50 [20] of the same molecule?
Its GI50 is 8.79 µM (inactive).

What about the GI50 [21] of the same molecule?
The GI50 was 15.6 µM (inactive).

What about the GI50 [22] of the same molecule?
Its GI50 is 19.8 µM (inactive).

And the GI50 [23]?
Its GI50 is 77.3 µM (inactive).

And the GI50 [24]?
Its GI50 is 7.38 µM (inactive).

And the GI50 [25]?
The GI50 was 17.9 µM (inactive).

What about the GI50 [26] of the same molecule?
The GI50 was 4.13 µM (inactive).

And the GI50 [27]?
The GI50 was 22.2 µM (inactive).

What about the GI50 [28] of the same molecule?
Its GI50 is 5.27 µM (inactive).

And the GI50 [29]?
Its GI50 is 13.3 µM (inactive).

And the GI50 [30]?
The GI50 was 21.2 µM (inactive).

And the GI50 [31]?
Its GI50 is 13.4 µM (inactive).

And the GI50 [32]?
Its GI50 is 24.2 µM (inactive).

What about the GI50 [33] of the same molecule?
The GI50 was 8.93 µM (inactive).

What about the GI50 [34] of the same molecule?
The GI50 was 11.1 µM (inactive).

And the GI50 [35]?
Its GI50 is 90.6 µM (inactive).

And the GI50 [36]?
Its GI50 is 20.7 µM (inactive).

And the GI50 [37]?
Its GI50 is 15 µM (inactive).

What about the GI50 [38] of the same molecule?
The GI50 was 20.5 µM (inactive).

And the GI50 [39]?
Its GI50 is 29.9 µM (inactive).

And the GI50 [40]?
Its GI50 is 13.5 µM (inactive).

And the GI50 [41]?
The GI50 was 28.2 µM (inactive).

What about the GI50 [42] of the same molecule?
Its GI50 is 15.5 µM (inactive).

What about the GI50 [43] of the same molecule?
Its GI50 is 35.4 µM (inactive).

What about the GI50 [44] of the same molecule?
The GI50 was 13.4 µM (inactive).

And the GI50 [45]?
The GI50 was 15.8 µM (inactive).

And the GI50 [46]?
Its GI50 is 11.7 µM (inactive).

What about the GI50 [47] of the same molecule?
Its GI50 is 12.8 µM (inactive).

And the GI50 [48]?
Its GI50 is 13.3 µM (inactive).

And the GI50 [49]?
The GI50 was 27.3 µM (inactive).

What about the GI50 [50] of the same molecule?
The GI50 was 16.4 µM (inactive).

What about the GI50 [51] of the same molecule?
Its GI50 is 21.6 µM (inactive).

What about the GI50 [52] of the same molecule?
Its GI50 is 15.7 µM (inactive).

What about the GI50 [53] of the same molecule?
The GI50 was 10.4 µM (inactive).

And the GI50 [54]?
Its GI50 is 26.3 µM (inactive).

What does the source list for `CCN(CC)C(=S)SC(C(=O)Nc1nnc(-c2ccccc2)o1)c1ccccc1` (configuration not stated)?
GI50 [1]: 22.9 µM (inactive); GI50 [2]: 17.9 µM (inactive); GI50 [4]: 5.24 µM; GI50 [5]: 17.8 µM (inactive); GI50 [6]: 25.9 µM (inactive); GI50 [7]: 18.1 µM (inactive); GI50 [8]: 17.9 µM (inactive); GI50 [9]: 4.24 µM (inactive); GI50 [10]: 20.2 µM (inactive); GI50 [11]: 15.3 µM (inactive); GI50 [12]: 4.23 µM (inactive); GI50 [13]: 2.88 µM (inactive); GI50 [14]: 13.1 µM (inactive); GI50 [55]: 24.7 µM (inactive); GI50 [15]: 31.9 µM (inactive); GI50 [16]: 15.4 µM (inactive); GI50 [17]: 10.1 µM (inactive); GI50 [18]: 19.3 µM (inactive); GI50 [19]: 40.3 µM (inactive); GI50 [20]: 16 µM (inactive); GI50 [21]: 16.2 µM (inactive); GI50 [22]: 18.4 µM (inactive); GI50 [23]: 29.8 µM (inactive); GI50 [24]: 5.52 µM (inactive); GI50 [25]: 15.7 µM (inactive); GI50 [27]: 16.1 µM (inactive); GI50 [28]: 18.5 µM (inactive); GI50 [29]: 15.2 µM (inactive); GI50 [30]: 28.8 µM (inactive); GI50 [31]: 16.1 µM (inactive); GI50 [32]: 20.9 µM (inactive); GI50 [33]: 17.4 µM (inactive); GI50 [34]: 15.8 µM (inactive); GI50 [35]: 32.4 µM (inactive); GI50 [36]: 18.2 µM (inactive); GI50 [37]: 28.7 µM (inactive); GI50 [38]: 25.8 µM (inactive); GI50 [39]: 30.3 µM (inactive); GI50 [40]: 23.1 µM (inactive); GI50 [41]: 15.6 µM (inactive); GI50 [42]: 17.9 µM (inactive); GI50 [43]: 23.7 µM (inactive); GI50 [44]: 20.4 µM (inactive); GI50 [45]: 15.3 µM (inactive); GI50 [46]: 34.1 µM (inactive); GI50 [47]: 19.4 µM (inactive); GI50 [48]: 14.6 µM (inactive); GI50 [50]: 10.3 µM (inactive); GI50 [51]: 44.5 µM (inactive); GI50 [52]: 16.6 µM (inactive); GI50 [53]: 17.1 µM (inactive); GI50 [56]: 24.4 µM (inactive); GI50 [54]: 9.1 µM (inactive)
